Our source for the Kd and inhibition values is US20260183407A1, “DYRK/CLK PROTACS AND USES THEREOF” (Arizona Board of Regents on Behalf of the University of …, priority 2022, published 2026).

For orientation: Kd means a measure of binding affinity in units of concentration.

Assay [1] has as its target T1, DYRK1A (Homo sapiens, UniProt Q13627).
T1 construct: purchased Eurofins; host or cells: E. coli BL21-derived (T7 phage display) or HEK-293
Description: KdELECT kinase binding assay (Eurofins), DYRK1A. To be noted: 11-point 3-fold dilution series, qPCR readout; read-out: Binding Affinity (Kd) DYRK1A. The method, then: (§1) KDs were obtained from Eurofins who used the following procedure: Kinase tagged T7 phase strains were prepared in an E. coli host derived from the BL21 strain. E. coli were grown to log-phase and infected with T7 phage and incubated with shaking at 32° C. until lysis. The lysates were centrifuged and filtered to remove cell debris. The remaining kinases were produced in HEK-293 cells and subsequently tagged with DNA for qPCR detection. Streptavidin-coated magnetic beads were treated with biotinylated small molecule ligands for 30 minutes at room temperature to generate affinity resins for kinase assays. The liganded beads were blocked with excess biotin and washed with locking buffer (SeaBlock (Pierce), 1% BSA, 0.05% Tween 20, 1 mM DTT) to remove unbound ligand and to reduce non-specific binding. Binding reactions were assembled by combining kinases, liganded affinity beads, and test compounds in 1× binding buffer (20% SeaBlock, 0.17× PBS, 0.05% Tween 20, 6 mM DTT). Test compounds were prepared as 111X stocks in 100% DMSO. Kds were determined using a 11-poin 3-fold compound dilution series with three DMSO control points. All compounds for Kd measurements are distributed by acoustic transfer (non-contact dispensing) in 100% DMSO. The compounds were then diluted directly into the assays such that the final concentration of DMSO was 0.9%. All reactions performed in polypropylene 384-well plate. Each was a final volume of 0.02 mL. The assay plates were incubated at room temperature with shaking for 1 hour and the affinity beads were washed with wash buffer (1×PBS, 0.05% Tween 20). The beads were then resuspended in elution buffer (1X PBS, 0.05% Tween 20, 0.5 µM nonbiotinylated affinity ligand) and incubated at room temperature with shaking for 30 minutes. The kinase concentration in the eluates was measured by qPCR.

In a further assay the target is T2, DYRK1B (Homo sapiens, UniProt Q9Y463).
T2 construct: purchased Eurofins; host or cells: E. coli BL21-derived (T7 phage display) or HEK-293
Description: KdELECT kinase binding assay (Eurofins), DYRK1B. To be noted: 11-point 3-fold dilution series, qPCR readout; read-out: Binding Affinity (Kd) DYRK1B. The method, then:
as §1
In general terms: In qPCR the cycle at which signal appears reflects the starting amount.

The target in assay [2] is T1, DYRK1A. Description: HiBiT split luciferase assay of targeted degradation of DYRK1A in Flp-In T-REx 293 cells. The format is cell-based. To be noted: 300 nM compound, 24 h, HiBiT-tagged DYRK1A in Flp-In T-REx 293 cells, normalized to vehicle; read-out: Relative Degradation at 300 nM DYRK1A. From the text: The Flp-In T-REx 293 Cell Line and the pcDNA5/FRT/TO vector (Invitrogen) were used to generate stable cell clones for tetracyclin-inducible expression of DYRK1A and DYRK1B. These cells contain a single stably integrated Flp recognition target (FRT) site, which allows for site-specific integration of the expression cassette by the Flp (Flippase) recombinase. DYRK1 constructs were designed to contain a C-terminal HiBiT tag for quantitative detection of HiBiT-tagged proteins in cellular lysates with the help a split luciferase assay (Nano-Glo HiBiT Lytic Detection System, Promega). To monitor the targeted degradation of DYRK1A or DYRK1B, cells were seeded in 96-well plates (10,000 cells/per well) and treated with doxycyclineinal concentration 2 μg/ml) to induce DYRK1 expression. Compounds with presumed PROTAC activity were administered 24 h after seeding. After further incubation for 24 h, cells were grossly and microscopically inspected for overt toxicity. Cells were lysed in 100 μL ice-cold passive lysis buffer (PLB, Promega) by orbital shaking (30 min on ice) before lysates were centrifuged in PCR tube (20 min 20,000 g, RT). A 10 μl aliquot of the supernatant was subjected to the HiBiT lytic assay. Luminescence was quantified in an Orion Microplate luminometer (Berthold Detection System, Germany). All compounds were tested in duplicate or triplicate wells (technical replicates) and at least two independent experiments. Relative degradation was calculated by normalization to vehicle-treated control samples.
For orientation: HiBiT is a short tag that completes a luciferase, so light tracks the accessible tagged protein.

T2 sequence (Q9Y463 whole entry, species assumed): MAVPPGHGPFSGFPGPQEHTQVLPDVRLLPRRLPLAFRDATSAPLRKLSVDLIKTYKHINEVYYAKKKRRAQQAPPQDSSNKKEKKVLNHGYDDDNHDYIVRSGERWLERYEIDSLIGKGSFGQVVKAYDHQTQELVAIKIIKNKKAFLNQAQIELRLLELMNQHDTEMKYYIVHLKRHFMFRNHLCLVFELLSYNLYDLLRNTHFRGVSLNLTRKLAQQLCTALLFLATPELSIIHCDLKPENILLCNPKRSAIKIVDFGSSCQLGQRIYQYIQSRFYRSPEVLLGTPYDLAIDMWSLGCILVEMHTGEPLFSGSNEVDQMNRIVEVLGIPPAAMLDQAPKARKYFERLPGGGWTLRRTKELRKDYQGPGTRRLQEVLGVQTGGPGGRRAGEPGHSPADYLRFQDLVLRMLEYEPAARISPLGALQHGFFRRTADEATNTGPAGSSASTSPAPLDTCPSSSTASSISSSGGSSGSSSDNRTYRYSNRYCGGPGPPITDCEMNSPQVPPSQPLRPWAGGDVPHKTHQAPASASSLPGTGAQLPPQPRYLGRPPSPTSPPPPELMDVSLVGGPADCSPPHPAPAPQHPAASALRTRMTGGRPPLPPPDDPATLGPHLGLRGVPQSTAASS

`Cc1nc2ccc(-c3ccnc(N)c3)nc2n1-c1cc(F)c(N2CCN(C3CCN(CC#Cc4ccc(N5CCC(C(=O)N6CCC(n7cc(CNc8cccc9c8C(=O)N(C8CCC(=O)NC8=O)C9=O)cn7)CC6)CC5)nc4)CC3)CC2)c(F)c1` (stereo not shown) [Compound 36, 4-(((1-(1-(1-(5-(3-(4-(4-(4-(5-(2-aminopyridin-4-yl)-2-methyl-3H-imidazo[4,5-b]pyridin-3-yl)-2,6-difluorophenyl)piperazin-1-yl)piperidin-1-yl)prop-1-yn-1-yl)pyridin-2-yl)piperidine-4-carbonyl)piperidin-4-yl)-1H-pyrazol-4-yl)methyl)amino)-2-(2,6-dioxopiperidin-3-yl)isoindoline-1,3-dione]: the Kd on DYRK1A [1] and on DYRK1B was below 10 nM throughout.

For `Cc1nc2ccc(-c3ccnc(N)c3)nc2n1-c1cc(F)c(N2C[C@@H](C)N(CC#Cc3ccc(N4CCC(C(=O)N5CCC(n6cc(CNc7cccc8c7C(=O)N(C7CCC(=O)NC7=O)C8=O)cn6)CC5)CC4)nc3)[C@@H](C)C2)c(F)c1` (stereo partly drawn) [Compound 37, 4-(((1-(1-(1-(5-(3-((2S,6R)-4-(4-(5-(2-aminopyridin-4-yl)-2-methyl-3H-imidazo[4,5-b]pyridin-3-yl)-2,6-difluorophenyl)-2,6-dimethylpiperazin-1-yl)prop-1-yn-1-yl)pyridin-2-yl)piperidine-4-carbonyl)piperidin-4-yl)-1H-pyrazol-4-yl)methyl)amino)-2-(2,6-dioxopiperidin-3-yl)isoindoline-1,3-dione], the Kd was below 10 nM at DYRK1A [1] and 10 to 100 nM on DYRK1B.

On to `Cc1nc2ccc(-c3ccnc(N)c3)nc2n1-c1ccc(N2CCN(C(=O)CCN3CCN(Cc4ccc(CNc5cccc6c5CN(C5CCC(=O)NC5=O)C6=O)cc4)CC3)CC2)c(F)c1` (stereo not shown) [Compound 11, 3-(4-((4-((4-(3-(4-(4-(5-(2-aminopyridin-4-yl)-2-methyl-3H-imidazo[4,5-b]pyridin-3-yl)-2-fluorophenyl)piperazin-1-yl)-3-oxopropyl)piperazin-1-yl)methyl)benzyl)amino)-1-oxoisoindolin-2-yl)piperidine-2,6-dione], for which, on DYRK1A [2], the inhibition at 0.3 µM is below 30%. For the same molecule, the Kd at DYRK1A [1] and on DYRK1B was 10 to 100 nM in each case.

Regarding `Cc1nc2ccc(-c3ccnc(N)c3)nc2n1-c1ccc(N2CCN(CC#Cc3ccc(C4(C(=O)N5CCC(n6cc(CNc7cccc8c7C(=O)N(C7CCC(=O)NC7=O)C8=O)cn6)CC5)CCC4)cc3)CC2)c(F)c1` (stereo not shown) [Compound 28, 4-(((1-(1-(1-(4-(3-(4-(4-(5-(2-aminopyridin-4-yl)-2-methyl-3H-imidazo[4,5-b]pyridin-3-yl)-2-fluorophenyl)piperazin-1-yl)prop-1-yn-1-yl)phenyl)cyclobutane-1-carbonyl)piperidin-4-yl)-1H-pyrazol-4-yl)methyl)amino)-2-(2,6-dioxopiperidin-3-yl)isoindoline-1,3-dione], the inhibition at 0.3 µM on DYRK1A [2] is above 60%. The equilibrium dissociation constant (Kd) on DYRK1A [1] was below 10 nM; at DYRK1B, 10 to 100 nM.

Regarding `Cc1nc2ccc(-c3ccnc(N)c3)nc2n1-c1cc(F)c(N2CCN(CC#Cc3ccc(N4CCC(C(=O)N5CCC(n6cc(COc7ccc(C8CCC(=O)NC8=O)cc7)cn6)CC5)CC4)nc3)CC2)c(F)c1` (stereo not shown) [Compound 34, 3-(4-((1-(1-(1-(5-(3-(4-(4-(5-(2-aminopyridin-4-yl)-2-methyl-3H-imidazo[4,5-b]pyridin-3-yl)-2,6-difluorophenyl)piperazin-1-yl)prop-1-yn-1-yl)pyridin-2-yl)piperidine-4-carbonyl)piperidin-4-yl)-1H-pyrazol-4-yl)methoxy)phenyl)piperidine-2,6-dione], the dissociation constant Kd at DYRK1A [1] and at DYRK1B was below 10 nM each time.

Consider `Cc1nc2ccc(-c3ccnc(N)c3)nc2n1-c1ccc(N2CCN(C(=O)CCCN3CCN(Cc4ccc(CNc5cccc6c5CN(C5CCC(=O)NC5=O)C6=O)cc4)CC3)CC2)c(F)c1` (stereo not shown) [Compound 12, 3-(4-((4-((4-(4-(4-(4-(5-(2-aminopyridin-4-yl)-2-methyl-3H-imidazo[4,5-b]pyridin-3-yl)-2-fluorophenyl)piperazin-1-yl)-4-oxobutyl)piperazin-1-yl)methyl)benzyl)amino)-1-oxoisoindolin-2-yl)piperidine-2,6-dione], for which the inhibition at 0.3 µM on DYRK1A [2] lay within 30 to 60%. The equilibrium dissociation constant (Kd) on DYRK1A [1] and at DYRK1B was below 10 nM in each case.

Consider `Cc1nc2ccc(-c3ccnc(N)c3)nc2n1-c1cc(F)c(N2CCN(C3CN(CC#Cc4ccc(N5CCC(C(=O)N6CCC(n7cc(CNc8cccc9c8C(=O)N(C8CCC(=O)NC8=O)C9=O)cn7)CC6)CC5)nc4)C3)CC2)c(F)c1` (stereo not shown) [Compound 39, 4-(((1-(1-(1-(5-(3-(3-(4-(4-(5-(2-aminopyridin-4-yl)-2-methyl-3H-imidazo[4,5-b]pyridin-3-yl)-2,6-difluorophenyl)piperazin-1-yl)azetidin-1-yl)prop-1-yn-1-yl)pyridin-2-yl)piperidine-4-carbonyl)piperidin-4-yl)-1H-pyrazol-4-yl)methyl)amino)-2-(2,6-dioxopiperidin-3-yl)isoindoline-1,3-dione], for which the Kd on DYRK1A [1] and on DYRK1B was below 10 nM in each case.

Regarding `Cc1nc2ccc(-c3ccnc(N)c3)nc2n1-c1ccc(N2CCN(CCOCCOCCOCCOCCNc3cc4c(cc3F)C(=O)N(C3CCC(=O)NC3=O)C4=O)CC2)c(F)c1` (stereo not shown) [Compound 13, 5-((14-(4-(4-(5-(2-aminopyridin-4-yl)-2-methyl-3H-imidazo[4,5-b]pyridin-3-yl)-2-fluorophenyl)piperazin-1-yl)-3,6,9,12-tetraoxatetradecyl)amino)-2-(2,6-dioxopiperidin-3-yl)-6-fluoroisoindoline-1,3-dione], the inhibition at 0.3 µM on DYRK1A [2] is below 30%. Moreover, the Kd at DYRK1A [1] and at DYRK1B was 10 to 100 nM each time.

For `Cc1nc2ccc(-c3ccnc(N)c3)nc2n1-c1cc(F)c(N2CC3(CN(CC#Cc4ccc(N5CCC(C(=O)N6CCC(n7cc(CNc8cccc9c8C(=O)N(C8CCC(=O)NC8=O)C9=O)cn7)CC6)CC5)nc4)C3)C2)c(F)c1` (stereo not shown) [Compound 40, 4-(((1-(1-(1-(5-(3-(6-(4-(5-(2-aminopyridin-4-yl)-2-methyl-3H-imidazo[4,5-b]pyridin-3-yl)-2,6-difluorophenyl)-2,6-diazaspiro[3.3]heptan-2-yl)prop-1-yn-1-yl)pyridin-2-yl)piperidine-4-carbonyl)piperidin-4-yl)-1H-pyrazol-4-yl)methyl)amino)-2-(2,6-dioxopiperidin-3-yl)isoindoline-1,3-dione], the dissociation constant (Kd) on DYRK1A [1] is below 10 nM; on DYRK1B it was 10 to 100 nM.

As to `Cc1nc2ccc(-c3ccnc(N)c3)nc2n1-c1ccc(N2CCN(C(=O)CCCCN3CCN(Cc4ccc(CNc5cccc6c5CN(C5CCC(=O)NC5=O)C6=O)cc4)CC3)CC2)c(F)c1` (stereo not shown) [Compound 14, 3-(4-((4-((4-(5-(4-(4-(5-(2-aminopyridin-4-yl)-2-methyl-3H-imidazo[4,5-b]pyridin-3-yl)-2-fluorophenyl)piperazin-1-yl)-5-oxopentyl)piperazin-1-yl)methyl)benzyl)amino)-1-oxoisoindolin-2-yl)piperidine-2,6-dione], on DYRK1A [2], the inhibition at 0.3 µM is below 30%. Besides, the dissociation constant (Kd) at DYRK1A [1] and at DYRK1B was below 10 nM each time.
